Measurements as given in paper PMC10611374, “Characterization of the Hemolytic Activity of Mastoparan Family Peptides from Wasp Venoms” (Toxins, 2023).
In brackets after ≈: the same amount, converted by molar mass. Where two headings read alike, the source gives them in different places. Ends that are not written are not given here.

Columns and labels:
[1] = system: human red blood cells (HRBCs); test: Hemolytic assay on human red blood cells; type: cell-based; details: for HRBC Hemolysis (hemolysis rate at 320 μg/mL) / EC50: human red blood cells 5% (v/v) in PBS, 37 °C 1 h, OD 540 nm; for HRBC Hemolysis (hemolysis rate at 320 μg/mL): peptide 320 μg/mL (highest dose), PBS = 0%, mean of three independent experiments; for EC50: four-parameter logistic fit of mean of three independent experiments, '-' = hemolytic activity too low to calculate the EC50
Experimental: (§1) Fresh human red blood cells were obtained from healthy donors and collected in a sterile blood collecting vessel covered with sodium citrate (1:9) as the anticoagulating agent. Rat red blood cells were collected from the abdominal aorta in sterile blood-collecting vessels coated with sodium citrate (1:4) after the SD rats were anaesthetized with isoflurane. Then, the cells were washed three times with phosphate-buffered saline via centrifugation (1000× g, 4 °C, 5 min) and prepared in a sterile 96-well polypropylene plate to achieve a final concentration of 5% (v/v). Twofold dilutions of the peptides were prepared in PBS to 100 μL and mixed with an equal volume of HRBCs/RRBCs suspension to final peptide concentrations ranging from 10 to 320 μg/mL. After coincubation at 37 °C for 1 h, the plate was centrifuged (2000× g, 4 °C, 20 min), and 100 μL of supernatant was taken for optical density measurements at 540 nm using a microtiter plate reader (SpectraMax 190). The HRBCs/RRBCs were assayed with PBS (blank) or 1% Triton X-100 (positive control) to represent 0% and 100% hemolysis, respectively. The percent hemolysis was calculated according to the following equation: Hemolysis Rate (%) = 100% × (Amastoparans − Ablank)/(ATriton X-100 − Ablank). Three independent experiments were performed, and the mean hemolysis rate at each dose was used to calculate the EC50 in Sigmaplot software.
(§2) Statistical analysis was performed with GraphPad Prism software (version 5.0, San Diego, CA, USA). A two-tailed Student’s t-test was used to calculate the statistical probability in this study. Differences in the data were considered to be statistically significant when the p value was equal to or less than 0.05. The curve of hemolysis induced by wasp mastoparans was generated in SigmaPlot 12.5 software, and the EC50 was calculated according to the equation (Four Parameter Logistic Curve): y = min + (max − min)/(1 + (x/EC50)^−Hillslope). The heat map of hemolytic activity of mastoparan peptide was analysed in R software which is based on the value of log2(EC50).

[2] = system: rat red blood cells (RRBCs); test: Hemolytic assay on rat red blood cells; type: cell-based, SD rats; details: rat red blood cells 5% (v/v) in PBS, 37 °C 1 h, OD 540 nm; for RRBC Hemolysis (hemolysis rate at 320 μg/mL): peptide 320 μg/mL (highest dose), PBS = 0%, mean of three independent experiments; for EC50: four-parameter logistic fit of mean of three independent experiments, '-' = hemolytic activity too low to calculate the EC50
Experimental: as §1, §2

E. coli = details: reported antibacterial activity; reference per peptide in Table 3; cited from earlier work
S. aureus = details: reported antibacterial activity; reference per peptide in Table 3; cited from earlier work
[3] = peptide 10-320 μg/mL twofold dilutions, 1% Triton X-100 = 100%, read-out: HRBC EC50 (hemolytic activity)
[4] = peptide 10-320 μg/mL twofold dilutions, 1% Triton X-100 = 100%, read-out: RRBC EC50 (hemolytic activity)
[5] = Table 2 series, read-out: HRBC EC50 (hemolytic activity), Protopolybia-MPIII and mutants
[6] = Table 2 series, read-out: RRBC EC50 (hemolytic activity), Protopolybia-MPIII and mutants

Row | Compound | HRBC Hemolysis (hemolysis rate at 320 μg/mL) ([1]; 1% Triton X-100 = 100%) | EC50 [1, 3] | RRBC Hemolysis (hemolysis rate at 320 μg/mL) ([2]; 1% Triton X-100 = 100%) | EC50 [2, 4] | MIC E. coli (E. coli) | MIC S. aureus (S. aureus) | EC50 [1, 5] | EC50 [2, 6] | hemolytic activity on HRBCs, result in words ([1]; mutants relative to Protopolybia-MPIII)
1 | CC[C@H](C)[C@H](NC(=O)[C@H](CO)NC(=O)[C@H](CCCCN)NC(=O)[C@H](CC(C)C)NC(=O)[C@H](CCCCN)NC(=O)[C@@H](N)CC(C)C)C(=O)N[C@H](C(=O)N[C@@H](CO)C(=O)N[C@@H](Cc1c[nH]c2ccccc12)C(=O)N[C@@H](C)C(=O)N[C@@H](CCCCN)C(=O)N[C@@H](CCCCN)C(=O)N[C@H](C(=O)N[C@@H](CC(C)C)C(N)=O)C(C)C)C(C)C [Mastoparan-B] | 22% | > 400 µM | 19% | > 400 µM | 10 µM (≈ 16.1 µg/mL) | 60 µM (≈ 96.7 µg/mL) |  |  | 
2 | INLKAIAALVKKVL-NH2 [HR1] | 56% | 198 ± 8.9 µM | 39% | 253 ± 13 µM |  |  |  |  | 
3 | INWLKLGKKVIDIL-NH2 [Protopolybia-MPIII-7] |  |  |  |  |  |  | 37.8 ± 3.7 µM | 57.5 ± 2.7 µM | 
4 | CC[C@H](C)[C@H](NC(=O)[C@H](CC(=O)O)NC(=O)[C@@H](N)Cc1ccccc1)C(=O)N[C@@H](CCSC)C(=O)NCC(=O)N[C@@H](CC(C)C)C(=O)N[C@H](C(=O)N[C@@H](CCCCN)C(=O)N[C@@H](CCCCN)C(=O)N[C@H](C(=O)N[C@@H](C)C(=O)NCC(=O)N[C@@H](C)C(=O)N[C@@H](CC(C)C)C(N)=O)C(C)C)[C@@H](C)CC [EMP-ER] | 25% |  | 46% | 231 ± 3.7 µM |  |  |  |  | 
5 | INWLKLGKAVSAAL-NH2 [Protopolybia-MPIII-8] |  |  |  |  |  |  | 308 ± 6.2 µM | 444 ± 2.1 µM | 
6 | INWLKLGKKVSAIL-NH2 [Protopolybia-MP I] | 5% | > 400 µM | 5% | > 400 µM |  |  | > 400 µM | > 400 µM | almost no hemolytic activity
7 | INWLKLGKAVSAIL-NH2 [Protopolybia-MPIII-11] |  |  |  |  |  |  | 141 ± 2.4 µM | 134 ± 2.2 µM | 
8 | INLKAIAALAKKLF-NH2 [Mastoparan AF] | 47% | 227 ± 3.1 µM | 92% | 107 ± 15.7 µM |  |  |  |  | 
9 | INWAKLGKLALQAL-NH2 [Ropalidia-MP] | 100% | 42.5 ± 1.7 µM | 94% | 122 ± 4.3 µM |  |  |  |  | 
10 | INWKKIASIGKEVLKAL-NH2 [PMM2] | 100% | 42.6 ± 2.5 µM | 100% | 80.9 ± 6.4 µM |  |  |  |  | 
11 | IDWLKLGKMVMDVL-NH2 [Polybia-MP III] | 79% | 38.5 ± 5.9 µM | 100% | 74.8 ± 10.4 µM |  |  |  |  | 
12 | INWLKLGKKMMSAL-NH2 [MP] | 87% | 124 ± 15.3 µM | 10% |  |  |  |  |  | 
13 | INLKALAALVKKVL-NH2 [Mastoparan-II] | 78% | 134.6 ± 1.2 µM | 90% | 147 ± 3.4 µM |  |  |  |  | 
